Measured values from US20240353414A1 (Calico Life Sciences LLC, priority 2021, published 2024).

Legend:
mitochondrial pH [1] = settings: same cell type given the same drug in a dish
mitochondrial pH [2] = settings: BALB/cJ mouse, subcutaneous tumor expressing mito-pH-Countdown, before vs after administration of BAM15
Source text: Left panel: Raw time lapse animation (grayscale) of the back of a BALB/cJ mouse carrying a subcutaneous tumor expressing mito-pH-Countdown, measured in the GFP channel of a simple fluorescence photography system. […] Orange/blue/green box marks a region expressing mito-pH-Countdown. Right panel: Average fluorescent signal vs. time for two measurements before(orange, dots) and two measurements after (blue or green, triangles) administration of the mitochondrial uncoupler BAM15. […] Light gray lines show calibration measurements for pH 7.5 (solid) and pH 8 (dashed).

Fc1ccccc1Nc1nc2nonc2nc1Nc1ccccc1F [BAM15]
shift in mitochondrial pH (mitochondrial pH [1]): ~1 pH unit | drug-induced shift in mitochondrial pH (mitochondrial pH [2]): roughly 0.2 pH units
